Molecular target: T1, Alpha-tocopherol transfer protein (Homo sapiens, UniProt P49638)
T1 sequence (P49638 whole entry): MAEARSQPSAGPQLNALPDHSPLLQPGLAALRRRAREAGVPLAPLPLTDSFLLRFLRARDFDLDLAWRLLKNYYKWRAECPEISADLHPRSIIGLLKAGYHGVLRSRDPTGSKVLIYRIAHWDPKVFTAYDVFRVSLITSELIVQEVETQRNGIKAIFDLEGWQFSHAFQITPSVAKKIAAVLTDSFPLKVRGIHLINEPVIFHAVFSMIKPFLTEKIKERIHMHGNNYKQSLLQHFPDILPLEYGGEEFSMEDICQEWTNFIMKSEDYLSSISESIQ
Test: Binding affinity to human alpha-TTP assessed as dissociation constant incubated for 25 to 40 mins by fluorescence based assay

Kd: 94 nM
Structure (SMILES): CC1=CC(C)=[N+]2C1=Cc1ccc(CCCCCCCC[C@]3(C)CCc4c(C)c(O)c(C)c(C)c4O3)n1[B-]2(F)F

— ChEMBL document CHEMBL5335835, “Terpenes and Terpenoids Conjugated with BODIPYs: An Overview of Biological and Chemical Properties” (J Nat Prod, 2024)
